# Reference: patent publication US7094909B2, “HIV protease inhibitors, compositions containing the same, their pharmaceutical uses and materials for their synthesis” (priority 2001, dated 2006)
# Read-outs that look alike come from different tables or passages of the source.
# Key:
# [1] = test system: HIV-1 (HIV-1 RF, HIV-1 NL4-3) in CEM-SS / MT-2 cells; assay: Cytopathic effect (CPE) inhibition assay (XTT/MTT dye reduction); assay type: cell-based
# Method: T-cell lines, CEM-SS, and MT-2, and viruses HIV-1 RF and HIV-1 NL4-3 (pNL4-3) were obtained from the National Institutes of Health (AIDS Research and Reference Reagent Program, Bethesda, Md.).
# Cytopathic Effect (CPE) Inhibition Assays
# The ability of compounds to protect cells against HIV infection was measured by the […] dye reduction method, essentially as described (See Pauwels, R. Balzarini, J. Baba, M. Snoeck, R. Schols, D. Herdewijn, P. Desmyter, J. and De Clercq, E. 1988, “Rapid and automated tetrazolium-based colorimetric assay for the detection of anti-HIV compounds,”. J Virol. Methods., 20: 309–321 and Weislow, O. S. Kiser, R. Fine, D. L. Bader, J. Shoemaker, R. H. and Boyd, M. R. 1989. “New soluble-formazan assay for HIV-1 cytopathic effects: application to high-flux screening of synthetic and natural products for AIDS-antiviral activity”. J. Natl. Cancer Inst. 81:577–586). Subject cells were infected with test virus at an moi of 0.025 to 0.819 or mock infected with medium only and added at 2×10^4 cells per well into 96 well plates containing half-log dilutions of test compounds. Six days later, 50 μl of XTT (1 mg/ml XTT tetrazolium, 0.02 nM phenazine methosulfate) was added to the wells and the plate was reincubated for four hours. Viability, as determined by the amount of XTT formazan produced, was quantified spectrophotometrically by absorbance at 450 nm. Data from CPE assays were expressed as the percent of formazan produced in compound-treated cells compared to formazan produced in wells of uninfected, compound-free cells. The fifty percent effective concentration (EC50) was calculated as the concentration of compound that effected an increase in the percentage of formazan production in infected, compound-treated cells to 50% of that produced by uninfected, compound-free cells. The 50% cytotoxicity concentration (CC50) was calculated as the concentration of compound that decreased the percentage of formazan produced in uninfected, compound-treated cells to 50% of that produced in uninfected, compound-free cells. The therapeutic index was calculated by dividing the cytotoxicity (CC50) by the antiviral activity (EC50).
# [2] = molecular target: T1, HIV-1 protease (Q7S mutant form) (Human immunodeficiency virus type 1 group M subtype B, UniProt P04585, Q495S); assay: HIV-1 Protease RET assay; assay type: biochemical; conditions: Ki, unit inferred
# T1 construct: made in house
# Summary of the method: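 Ki values fitted with the Morrison tight-binding equation from steady-state RET cleavage (ex 340, em 490 nm) of 5 μM RE(EDANS)SQNYPIVQK(DABCYL)R. Buffer pH 4.8 acetate, 1M NaCl, 5 mM DTT, 1 mg/ml BSA, 10% DMSO; 2 nM Q7S mutant dimer, 37 °C, 12 min.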
# [3] = Human immunodeficiency virus 1, NL43, unit inferred, read-out: EC50
# [4] = Human immunodeficiency virus 1, NL43, read-out: Ave CPE EC50
Compound,"EC50 [1, 3]",Ki [2],"EC50 [1, 4]"
Cc1ccccc1CNC(=O)[C@@H]1C(C(=O)[C@@H](O)[C@H](Cc2ccccc2)NC(=O)c2cccc(O)c2C)[C@@H]2CC[C@@H]1C2 (some centres unmarked),≥ 10000 nM,,
Cc1ccccc1CNC(=O)[C@H]1C(C(=O)[C@@H](O)[C@H](Cc2ccccc2)NC(=O)c2cccc(O)c2C)[C@@H]2CC[C@@H]1C2 (some centres unmarked),≥ 10000 nM,,
Cc1cccc(C)c1OCC(=O)N[C@@H](Cc1ccccc1)[C@H](O)C(=O)N1CSC(C)(C)[C@H]1C(=O)NCc1ccccc1C(F)(F)F,1950 nM,1.4 nM,
CC1(C)SCN(C(=O)[C@@H](O)[C@H](Cc2ccccc2)NC(=O)c2cccc3c2CCN3)[C@@H]1C(=O)N[C@@H]1CCOc2ccccc21,1960 nM,7.4 nM,
Cc1ccccc1CNC(=O)[C@H]1N(C(=O)[C@@H](O)[C@H](Cc2ccccc2)NC(=O)C(F)(F)F)CSC1(C)C,2200 nM,17.1 nM,
Cc1ccccc1CNC(=O)[C@H]1N(C(=O)[C@@H](O)[C@H](Cc2ccccc2)NC(=O)OC2CC3CCC2C3)CSC1(C)C (some centres unmarked),2880 nM,9.4 nM,
CC1(C)SCN(C(=O)[C@@H](O)[C@H](Cc2ccccc2)NC(=O)CSc2nc[nH]n2)[C@@H]1C(=O)NCC#N,≥ 3200 nM,28 nM,
Cc1ccccc1CNC(=O)C1N(C(=O)[C@@H](O)[C@H](Cc2ccccc2)NC(=O)CSc2nc3ccccc3[nH]2)CSC1(C)C (some centres unmarked),≥ 3200 nM,17.4 nM,
Cc1ccccc1CNC(=O)C1N(C(=O)[C@@H](O)[C@H](Cc2ccccc2)NC(=O)CSc2nncn2C)CSC1(C)C (some centres unmarked),≥ 3200 nM,82 nM,
Cc1ccccc1CNC(=O)[C@H]1N(C(=O)[C@@H](O)[C@H](Cc2ccccc2)NC(=O)COc2cccc3ccccc23)CSC1(C)C,≥ 3200 nM,5.8 nM,
Cc1ccccc1CNC(=O)[C@H]1N(C(=O)[C@@H](O)[C@H](Cc2ccccc2)NC(=O)COc2cccc(N3CCOCC3)c2)CSC1(C)C,≥ 3200 nM,4.4 nM,
Cc1ccccc1CNC(=O)[C@@H]1C2CCC(CC2)N1C(=O)[C@@H](O)[C@H](Cc1ccccc1)NC(=O)c1cccc(O)c1C,≥ 3200 nM,9.8 nM,
CCCNC(=O)[C@H]1N(C(=O)[C@@H](O)[C@H](Cc2ccccc2)NC(=O)OCCC)CSC1(C)C,≥ 3200 nM,12.7 nM,
CCCC(C)C(=O)NC(Cc1ccccc1)[C@H](O)C(=O)N1CSC(C)(C)C1C(=O)NCc1ccccc1C (some centres unmarked),≥ 3200 nM,12.6 nM,
CCC(=O)NC(Cc1ccccc1)[C@H](O)C(=O)N1CSC(C)(C)C1C(=O)NCc1ccccc1C (some centres unmarked),≥ 3200 nM,8.4 nM,
C=CC(C)COC(=O)NC(Cc1ccccc1)[C@H](O)C(=O)N1CSC(C)(C)C1C(=O)NCc1ccccc1C (some centres unmarked),≥ 3200 nM,15.1 nM,
Cc1ccccc1CNC(=O)[C@@H]1CC(F)(F)CN1C(=O)[C@@H](O)[C@H](Cc1ccccc1)NC(=O)C1C(C)C(=O)ON1C (some centres unmarked),≥ 3200 nM,3.6 nM,
"C=CCNC(=O)C1N(C(=O)[C@@H](O)[C@H](Cc2cccc(F)c2)NC(=O)c2cccc(O)c2C)CC(F)(F)C1(C)C (stereo partly drawn) [Example D2, (R)-3-((2S,3R)-4,4-Difluoro-1-[4(3-fluoro-phenyl)-2-hydroxy-3-(3-hydroxy-2-methyl-benzoylamino)-butyryl])-3,3-dimethyl-pyrrolidine-2-carboxylic acid allyiamide]",,,16 nM
"Cc1c(O)cccc1C(=O)N[C@@H](Cc1cccc(F)c1)[C@H](O)C(=O)N1CC(F)(F)C(C)(C)[C@H]1C(=O)NCC(C)C [Example D3, (S)-4,4-Difluoro-1-[(2S,3S)-4-(3-fluoro-phenyl)-2-hydroxy-3-(3-hydroxy-2-methyl-benzoylamino)-butyryl]-3,3-dimethyl-pyrrolidine-2-carboxylic acid is butyl-amide]",,,13 nM
"Cc1cc(O)c(C)c(C(=O)N[C@@H](Cc2ccccc2)[C@H](O)C(=O)N2CC(F)(F)C(C)(C)[C@H]2C(=O)NCC(F)(F)F)c1 [Example D6, (S)-4,4-Difluoro-1-[(2S,3S)-2-hydroxy-3-(3-hydroxy-2,5-dimethyl-benzoylamino)-4-phenyl-butyryl]-3,3-dimethyl-pyrrolidine-2-carboxylic acid (2,2,2-trifluoro-ethyl)-amide]",,,18 nM
